Laboratory results reported in PubChem BioAssay (NCI).
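Exposure lasted 48 hours, with cells grown in 96-well plates and compounds tested at five concentrations. GI50 is the concentration that inhibits growth by half. TGI is the concentration that stops growth completely.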

Assays:
Assay in all cases: NCI tumour cell line growth inhibition, 48 h
MDA-MB-231 breast = system: MDA-MB-231 breast
NCI/ADR-RES ovarian = system: NCI/ADR-RES ovarian
DU-145 prostate = system: DU-145 prostate
SW-620 colon = system: SW-620 colon
A549 NSCLC = system: A549 NSCLC
UACC-257 melanoma = system: UACC-257 melanoma
ACHN renal = system: ACHN renal
HCT-116 colon = system: HCT-116 colon
SK-MEL-28 melanoma = system: SK-MEL-28 melanoma
EKVX NSCLC = system: EKVX NSCLC
HL-60(TB) leukemia = system: HL-60(TB) leukemia
SN12C renal = system: SN12C renal
OVCAR-4 ovarian = system: OVCAR-4 ovarian
TK-10 renal = system: TK-10 renal
UACC-62 melanoma = system: UACC-62 melanoma
K-562 leukemia = system: K-562 leukemia
SK-MEL-2 melanoma = system: SK-MEL-2 melanoma
HOP-62 NSCLC = system: HOP-62 NSCLC
CCRF-CEM leukemia = system: CCRF-CEM leukemia
RPMI-8226 leukemia = system: RPMI-8226 leukemia
OVCAR-8 ovarian = system: OVCAR-8 ovarian
MALME-3M melanoma = system: MALME-3M melanoma
SF-295 CNS = system: SF-295 CNS
HT29 colon = system: HT29 colon
M14 melanoma = system: M14 melanoma
IGROV1 ovarian = system: IGROV1 ovarian
U251 CNS = system: U251 CNS
PC-3 prostate = system: PC-3 prostate
SR leukemia = system: SR leukemia
SK-OV-3 ovarian = system: SK-OV-3 ovarian
NCI-H226 lung = system: NCI-H226 lung
KM12 colon = system: KM12 colon
MOLT-4 leukemia = system: MOLT-4 leukemia
NCI-H23 lung = system: NCI-H23 lung
OVCAR-5 ovarian = system: OVCAR-5 ovarian
UO-31 renal = system: UO-31 renal
SF-268 CNS = system: SF-268 CNS
LOX IMVI melanoma = system: LOX IMVI melanoma
HCT-15 colon = system: HCT-15 colon
NCI-H522 lung = system: NCI-H522 lung
T-47D breast = system: T-47D breast
SNB-75 CNS = system: SNB-75 CNS
BT-549 breast = system: BT-549 breast
MCF7 breast = system: MCF7 breast
SF-539 CNS = system: SF-539 CNS
SK-MEL-5 melanoma = system: SK-MEL-5 melanoma
NCI-H460 lung = system: NCI-H460 lung
MDA-MB-435 = system: MDA-MB-435
OVCAR-3 ovarian = system: OVCAR-3 ovarian
COLO 205 colon = system: COLO 205 colon
HOP-92 NSCLC = system: HOP-92 NSCLC
786-0 renal = system: 786-0 renal
RXF 393 renal = system: RXF 393 renal
HCC-2998 colon = system: HCC-2998 colon
A498 renal = system: A498 renal
CAKI-1 renal = system: CAKI-1 renal

In the case of `O=C1c2ccccc2-c2c1c1ccccc1c(=O)n2CCCNCCNCCCn1c2c(c3ccccc3c1=O)C(=O)c1ccccc1-2`, the GI50 (MDA-MB-231 breast) is reported as < 38.1 nM, the TGI (MDA-MB-231 breast) is reported as 437 nM and the GI50 (NCI/ADR-RES ovarian) is reported as 358 nM. The TGI (NCI/ADR-RES ovarian) was 1750 nM, the TGI (DU-145 prostate) was 1070 nM and the GI50 (SW-620 colon) was < 10 nM. For the same compound, the TGI (SW-620 colon) was 258 nM, the GI50 (A549 NSCLC) was 53.4 nM and the TGI (A549 NSCLC) was 1630 nM. The GI50 (UACC-257 melanoma) was 1240 nM, the TGI (UACC-257 melanoma) was 3470 nM and the GI50 (ACHN renal) was < 10 nM. For the same compound, the TGI (ACHN renal) was 1310 nM, the GI50 (HCT-116 colon) was < 10 nM and the TGI (HCT-116 colon) was 163 nM. For the same compound, the GI50 (SK-MEL-28 melanoma) was 1090 nM, the TGI (SK-MEL-28 melanoma) was > 100000 nM and the GI50 (EKVX NSCLC) was 1230 nM. The TGI (EKVX NSCLC) was 2880 nM, the GI50 (HL-60(TB) leukemia) was 3510 nM and the TGI (HL-60(TB) leukemia) was > 100000 nM. For the same compound, the TGI (SN12C renal) was 1810 nM, the GI50 (OVCAR-4 ovarian) was 694 nM and the TGI (OVCAR-4 ovarian) was 4560 nM. It also gave a GI50 (TK-10 renal) of 279 nM, a TGI (TK-10 renal) of 2080 nM and a GI50 (UACC-62 melanoma) of 174 nM. The TGI (UACC-62 melanoma) was 1880 nM, the GI50 (K-562 leukemia) was < 33.5 nM and the TGI (K-562 leukemia) was > 100000 nM. For the same compound, the GI50 (SK-MEL-2 melanoma) was 2020 nM, the GI50 (HOP-62 NSCLC) was < 17.2 nM and the TGI (HOP-62 NSCLC) was 582 nM. The GI50 (CCRF-CEM leukemia) was 14.2 nM, the TGI (CCRF-CEM leukemia) was 498 nM and the GI50 (RPMI-8226 leukemia) was < 10 nM. The TGI (RPMI-8226 leukemia) was 221 nM, the GI50 (OVCAR-8 ovarian) was < 10 nM and the TGI (OVCAR-8 ovarian) was 1660 nM. The GI50 (MALME-3M melanoma) was 681 nM, the TGI (MALME-3M melanoma) was 2270 nM and the GI50 (SF-295 CNS) was 78.2 nM. The TGI (SF-295 CNS) was 2320 nM, the GI50 (HT29 colon) was < 10 nM and the GI50 (M14 melanoma) was 288 nM. The TGI (M14 melanoma) was 1930 nM, the GI50 (IGROV1 ovarian) was < 36.7 nM and the TGI (IGROV1 ovarian) was > 32900 nM. The GI50 (U251 CNS) was 118 nM, the TGI (U251 CNS) was 2330 nM and the GI50 (PC-3 prostate) was 92.9 nM. For the same compound, the TGI (PC-3 prostate) was 1840 nM, the GI50 (SR leukemia) was 50.9 nM and the TGI (SR leukemia) was > 100000 nM. The GI50 (SK-OV-3 ovarian) was 1330 nM, the GI50 (NCI-H226 lung) was < 26.7 nM and the TGI (NCI-H226 lung) was 1980 nM. The GI50 (KM12 colon) was < 40 nM, the TGI (KM12 colon) was 415 nM and the GI50 (MOLT-4 leukemia) was < 10 nM. The TGI (MOLT-4 leukemia) was > 100000 nM, the GI50 (NCI-H23 lung) was 508 nM and the TGI (NCI-H23 lung) was 2570 nM. It also gave a GI50 (OVCAR-5 ovarian) of 1290 nM, a TGI (OVCAR-5 ovarian) of 2930 nM and a GI50 (UO-31 renal) of 342 nM. For the same compound, the GI50 (SF-268 CNS) was 16.6 nM, the TGI (SF-268 CNS) was 2500 nM and the GI50 (LOX IMVI melanoma) was < 10 nM. The TGI (LOX IMVI melanoma) was 355 nM, the GI50 (HCT-15 colon) was 83.1 nM and the TGI (HCT-15 colon) was 560 nM. For the same compound, the GI50 (NCI-H522 lung) was 151 nM.

With `CCN(CC)CCCC(Nc1c2ccc(Cl)cc2nc2ccc(OC)cc12)c1ccc(Cl)cc1` (stereo not drawn) the GI50 (MDA-MB-231 breast) was 670 nM, the TGI (MDA-MB-231 breast) was 2240 nM and the GI50 (NCI/ADR-RES ovarian) was 1470 nM. It also gave a TGI (NCI/ADR-RES ovarian) of 3080 nM, a GI50 (T-47D breast) of 1850 nM and a TGI (T-47D breast) of 3960 nM. For the same compound, the GI50 (DU-145 prostate) was 1520 nM, the TGI (DU-145 prostate) was 3030 nM and the GI50 (SNB-75 CNS) was 1160 nM. For the same compound, the TGI (SNB-75 CNS) was 2440 nM, the GI50 (SW-620 colon) was 1370 nM and the TGI (SW-620 colon) was 2990 nM. For the same compound, the GI50 (A549 NSCLC) was 1520 nM, the TGI (A549 NSCLC) was 3050 nM and the GI50 (UACC-257 melanoma) was 1680 nM. It also gave a TGI (UACC-257 melanoma) of 3220 nM, a GI50 (BT-549 breast) of 1700 nM and a TGI (BT-549 breast) of 3470 nM. It also gave a GI50 (ACHN renal) of 1380 nM, a TGI (ACHN renal) of 2810 nM and a GI50 (SK-MEL-28 melanoma) of 1340 nM. For the same compound, the TGI (SK-MEL-28 melanoma) was 2900 nM, the GI50 (EKVX NSCLC) was 1350 nM and the TGI (EKVX NSCLC) was 2960 nM. For the same compound, the GI50 (MCF7 breast) was 348 nM, the TGI (MCF7 breast) was 1430 nM and the GI50 (HL-60(TB) leukemia) was 1480 nM. For the same compound, the TGI (HL-60(TB) leukemia) was 3230 nM, the GI50 (OVCAR-4 ovarian) was 1130 nM and the TGI (OVCAR-4 ovarian) was 3170 nM. For the same compound, the GI50 (TK-10 renal) was 1620 nM, the TGI (TK-10 renal) was 3140 nM and the GI50 (SF-539 CNS) was 1560 nM. For the same compound, the TGI (SF-539 CNS) was 3100 nM, the GI50 (SK-MEL-5 melanoma) was 1250 nM and the TGI (SK-MEL-5 melanoma) was 2540 nM. For the same compound, the GI50 (K-562 leukemia) was 221 nM, the TGI (K-562 leukemia) was 432 nM and the GI50 (SK-MEL-2 melanoma) was 1890 nM. For the same compound, the TGI (SK-MEL-2 melanoma) was 3630 nM, the GI50 (HOP-62 NSCLC) was 1610 nM and the TGI (HOP-62 NSCLC) was 3140 nM. For the same compound, the GI50 (CCRF-CEM leukemia) was 530 nM, the TGI (CCRF-CEM leukemia) was 2070 nM and the GI50 (RPMI-8226 leukemia) was 449 nM. For the same compound, the TGI (RPMI-8226 leukemia) was 1800 nM, the GI50 (OVCAR-8 ovarian) was 1050 nM and the TGI (OVCAR-8 ovarian) was 2470 nM. The GI50 (MALME-3M melanoma) was 1880 nM, the TGI (MALME-3M melanoma) was 3550 nM and the GI50 (SF-295 CNS) was 1300 nM. The TGI (SF-295 CNS) was 2770 nM, the GI50 (HT29 colon) was 450 nM and the TGI (HT29 colon) was 1750 nM. It also gave a GI50 (NCI-H460 lung) of 1330 nM, a TGI (NCI-H460 lung) of 2880 nM and a GI50 (MDA-MB-435) of 576 nM. For the same compound, the TGI (MDA-MB-435) was 1930 nM, the GI50 (M14 melanoma) was 199 nM and the TGI (M14 melanoma) was 411 nM. It also gave a GI50 (OVCAR-3 ovarian) of 1220 nM, a TGI (OVCAR-3 ovarian) of 2750 nM and a GI50 (U251 CNS) of 579 nM. It also gave a TGI (U251 CNS) of 1830 nM, a GI50 (COLO 205 colon) of 1310 nM and a TGI (COLO 205 colon) of 2870 nM. It also gave a GI50 (PC-3 prostate) of 1550 nM, a TGI (PC-3 prostate) of 3040 nM and a GI50 (SR leukemia) of 217 nM. For the same compound, the TGI (SR leukemia) was 512 nM, the GI50 (HOP-92 NSCLC) was 1150 nM and the TGI (HOP-92 NSCLC) was 2810 nM. For the same compound, the GI50 (SK-OV-3 ovarian) was 2050 nM, the TGI (SK-OV-3 ovarian) was 3890 nM and the GI50 (KM12 colon) was 1520 nM. For the same compound, the TGI (KM12 colon) was 2990 nM, the GI50 (MOLT-4 leukemia) was 761 nM and the TGI (MOLT-4 leukemia) was 2300 nM. The GI50 (NCI-H23 lung) was 1430 nM, the TGI (NCI-H23 lung) was 2980 nM and the GI50 (786-0 renal) was 1290 nM. The TGI (786-0 renal) was 2910 nM, the GI50 (OVCAR-5 ovarian) was 1740 nM and the TGI (OVCAR-5 ovarian) was 3360 nM. The GI50 (UO-31 renal) was 1580 nM, the TGI (UO-31 renal) was 3080 nM and the GI50 (SF-268 CNS) was 1430 nM. It also gave a TGI (SF-268 CNS) of 3050 nM, a GI50 (RXF 393 renal) of 1030 nM and a TGI (RXF 393 renal) of 2310 nM. For the same compound, the GI50 (HCC-2998 colon) was 1470 nM, the TGI (HCC-2998 colon) was 3010 nM and the GI50 (HCT-15 colon) was 404 nM. It also gave a TGI (HCT-15 colon) of 1590 nM, a GI50 (NCI-H522 lung) of 1460 nM and a TGI (NCI-H522 lung) of 3090 nM. It also gave a GI50 (A498 renal) of 1260 nM, a TGI (A498 renal) of 2640 nM and a GI50 (CAKI-1 renal) of 1170 nM. For the same compound, the TGI (CAKI-1 renal) was 2440 nM.
